This note sets out measurements from US7365088B2, “Indazole-derivatives as factor Xa inhibitors” (Sanofi-Aventis Deutschland GmbH, priority 2003, dated 2008).

This assay addresses human factor Xa (Homo sapiens, UniProt P00742). The experiment in a line: Factor Xa assay (chromogenic, substrate S-2765).

human factor Xa, sequence (P00742 235-488 limits assumed): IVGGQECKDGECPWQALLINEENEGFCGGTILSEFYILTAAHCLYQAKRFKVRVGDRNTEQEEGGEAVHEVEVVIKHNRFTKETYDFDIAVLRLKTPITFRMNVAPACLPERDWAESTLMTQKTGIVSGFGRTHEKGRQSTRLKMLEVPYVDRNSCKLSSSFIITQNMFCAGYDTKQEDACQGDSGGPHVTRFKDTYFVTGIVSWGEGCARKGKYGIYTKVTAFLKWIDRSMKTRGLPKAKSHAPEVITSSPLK
human factor Xa, sequence (P00742 41-179 partner limits assumed): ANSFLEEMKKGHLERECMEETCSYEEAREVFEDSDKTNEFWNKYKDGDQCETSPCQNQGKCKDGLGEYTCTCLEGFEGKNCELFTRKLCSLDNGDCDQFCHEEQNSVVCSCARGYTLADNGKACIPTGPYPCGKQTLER

`O=C(Nc1ccc(C(=O)N2CCOCC2)cc1)c1nn(Cc2cc(-c3ccc(Cl)s3)on2)c2ccccc12` [Example 35, 1-[5-(5-Chloro-thiophen-2-yl)-isoxazol-3-ylmethyl]-1H-indazole-3-carboxylic acid [4-(morpholine-4-carbonyl)-phenyl]-amide]: the Ki (as a rule, a dissociation constant, usually derived from enzyme kinetics or from competition with a known ligand) is 530 nM.

`CC(C)N1CCC(NC(=O)c2nn(Cc3cc(-c4ccc(Cl)s4)on3)c3ccc(C(=O)N(C)CC(=O)O)cc23)CC1` [Example 28, {[1-[5-(5-Chloro-thiophen-2-yl)-isoxazol-3-ylmethyl]-3-(1-isopropyl-piperidin-4-ylcarbamoyl)-1H-indazole-5-carbonyl]-methyl-amino}-acetic acid] yielded a Ki of 15 nM. This Ki lies about 35-fold lower than the previous one. For `CC(C)N1CCC(NC(=O)c2nn(Cc3cc(-c4ccc(Cl)s4)on3)c3cc(C(=O)O)ccc23)CC1` [Example 6, 1-[5-(5-Chloro-thiophen-2-yl)-isoxazol-3-ylmethyl]-3-(1-isopropyl-piperidin-4-ylcarbamoyl)-1H-indazole-6-carboxylic acid] the value was 212 nM; for `COC(=O)c1ccc2c(C(=O)NC3CCN(C(C)C)CC3)nn(Cc3cc(-c4ccc(Cl)s4)on3)c2c1` [Example 2, 1-[5-(5-Chloro-thiophen-2-yl)-isoxazol-3-ylmethyl]-3-(1-isopropyl-piperidin-4-ylcarbamoyl)-1H-indazole-6-carboxylic acid methyl ester], 35 nM.

Turning to `O=C(c1nn(Cc2cc(-c3ccc(Cl)s3)on2)c2ccccc12)N1CCC(N2CCCC2=O)CC1` [Example 37, 1-(1-{1-[5-(5-Chloro-thiophen-2-yl)-isoxazol-3-ylmethyl]-1H-indazole-3-carbonyl}-piperidin-4-yl)-pyrrolidin-2-one], the Ki was 210 nM.

For the molecule `CC(C)N1CCC(NC(=O)c2nn(Cc3cc(-c4ccc(Cl)s4)on3)c3ccc(C(=O)NC(C)(CO)CO)cc23)CC1` [Example 24, 1-[5-(5-Chloro-thiophen-2-yl)-isoxazol-3-ylmethyl]-1H-indazole-3,5-dicarboxylic acid 5-[(2-hydroxy-1-hydroxymethyl-1-methyl-ethyl)-amide]3-[(1-isopropyl-piperidin-4-yl)-amide]], affinity was put at a Ki of 51 nM. In turn, `CC(C)N1CCC(NC(=O)c2nn(Cc3cc(-c4ccc(Cl)s4)on3)c3ccc(C(=O)NCCS(N)(=O)=O)cc23)CC1` [Example 14, 1-[5-(5-Chloro-thiophen-2-yl)-isoxazol-3-ylmethyl]-1H-indazole-3,5-dicarboxylic acid 3-[(1-isopropyl-piperidin-4-yl)-amide]5-[(2-sulfamoyl-ethyl)-amide]] registered an inhibition constant (Ki) of 28 nM. As for `O=C(Nc1ccc(-c2c[nH]cn2)cc1)c1nn(Cc2cc(-c3ccc(Cl)s3)on2)c2ccccc12` [Example 45, 1-[5-(5-Chloro-thiophen-2-yl)-isoxazol-3-ylmethyl]-1H-indazole-3-carboxylic acid [4-(1H-imidazol-4-yl)-phenyl]-amide], the inhibitory constant (Ki) was determined as 180 nM. Next, `CCOC(=O)OC(C)OC(=O)c1ccc2c(c1)c(C(=O)NC1CCN(C(C)C)CC1)nn2Cc1cc(-c2ccc(Cl)s2)on1` (stereo not shown) [Example 9, 1-[5-(5-Chloro-thiophen-2-yl)-isoxazol-3-ylmethyl]-3-(1-isopropyl-piperidin-4-ylcarbamoyl)-1H-indazole-5-carboxylic acid 1-ethoxycarbonyloxy-ethyl ester]: 82 nM. For `COC(=O)c1cccc2c(C(=O)NC3CCN(C(C)C)CC3)nn(Cc3cc(-c4ccc(Cl)s4)on3)c12` [Example 3, 1-[5-(5-Chloro-thiophen-2-yl)-isoxazol-3-ylmethyl]-3-(1-isopropyl-piperidin-4-ylcarbamoyl)-1H-indazole-7-carboxylic acid methyl ester] the value was 17 nM. Regarding `CC(C)N1CCC(NC(=O)c2nn(Cc3cc(-c4ccc(Cl)s4)on3)c3ccc(C(=O)NCCN4CCNC4=O)cc23)CC1` [Example 23, 1-[5-(5-Chloro-thiophen-2-yl)-isoxazol-3-ylmethyl]-1H-indazole-3,5-dicarboxylic acid 3-[(1-isopropyl-piperidin-4-yl)-amide]5-{[2-(2-oxo-imidazolidin-1-yl)-ethyl]-amide}], the inhibition constant Ki was 33 nM. This Ki lies about 1.9-fold higher than the previous one.

Molecule `CC(C)N1CCC(NC(=O)c2nn(Cc3cc(-c4ccc(Cl)s4)on3)c3ccc(C(=O)O)cc23)CC1` [Example 4, 1-[5-(5-Chloro-thiophen-2-yl)-isoxazol-3-ylmethyl]-3-(1-isopropyl-piperidin-4-ylcarbamoyl)-1H-indazole-5-carboxylic acid] returned a Ki of 18 nM. On to `CC(C)N1CCC(NC(=O)c2nn(Cc3cc(-c4ccc(Cl)s4)on3)c3ccc(C(=O)NC[Si](C)(C)C)cc23)CC1` [Example 16, 1-[5-(5-Chloro-thiophen-2-yl)-isoxazol-3-ylmethyl]-1H-indazole-3,5-dicarboxylic acid 3-[(1-isopropyl-piperidin-4-yl)-amide]5-trimethylsilanylmethyl-amide], for which the Ki was 54 nM. As to `CC(C)N1CCC(NC(=O)c2nn(Cc3cc(-c4ccc(Cl)s4)on3)c3ccc(C(=O)N4CC[C@H]4C(=O)O)cc23)CC1` [Example 26, 1-[1-[5-(5-Chloro-thiophen-2-yl)-isoxazol-3-ylmethyl]-3-(1-isopropyl-piperidin-4-ylcarbamoyl)-1H-indazole-5-carbonyl]-(2S)-azetidine-2-carboxylic acid], the Ki was 17 nM. On to `CONC(=O)c1ccc2c(c1)c(C(=O)NC1CCN(C(C)C)CC1)nn2Cc1cc(-c2ccc(Cl)s2)on1` [Example 32, 1-[5-(5-Chloro-thiophen-2-yl)-isoxazol-3-ylmethyl]-1H-indazole-3,5-dicarboxylic acid 3-[(1-isopropyl-piperidin-4-yl)-amide]5-(methoxy-amide)], for which affinity was put at a Ki of 22 nM. This Ki and that of the molecule before are within 1.5-fold of each other.

On to `CC(C)N1CCC(NC(=O)c2nn(CC(=O)Nc3ccc(Cl)cn3)c3ccccc23)CC1` [Example 7], for which the inhibitory constant (Ki) was 86 nM.
